{
  "source": "patent US9745357B2",
  "about": "“Peptides used for treating cancers and, in particular, chronic lymphoid leukaemia” (Centre National de la Recherche Scientifique, priority 2009, dated 2017)",
  "key": {"[1]": {"system": "B lymphocytes from patients suffering from chronic lymphoid leukemia (CLL)", "details": "for IC50: read-out: IC50 (concentration of peptide causing the death of 50% of the cells), after 24 H", "method": "Peripheral blood B lymphocytes taken from patients suffering from CLL and then purified on a Ficoll cushion and placed in culture are incubated in the presence of […] of the peptides described for FIG. 2. The percentage cell survival after 4 hours (gray column) or 24 hours (white column) of culture corresponds to the percentage of cells labeled neither with annexin nor with propidium iodide, evaluated by flow cytometry.\nThe CLL B lymphocytes were obtained from peripheral blood of 18 different patients suffering from chronic lymphoid leukemia. […] The samples were taken in the Brest hospital center, in the hematology department. The blood samples were taken after informing the patients and obtaining their informed consent.\nThe lymphocytes, mononuclear cells, were isolated from the heparinized peripheral blood samples by Ficoll-Hypaque (LSM 1077 lymphocyte, euro-bio) centrifugation. The red blood cells were lyzed by incubation for 10 min in VersaLyse Lysing Solution (Beckman Coulter). The mononuclear cells are obtained after 2 washes in culture medium (RPMI1640, Gibco BRL).\n(§1) The cells were cultured in a culture medium composed either of RPMI 1640 (B lymphocytes) or of DMEM (COS7, HCT116, HGT1, 293, HeLa) containing 10% of FCS (fetal calf serum, 1% of penicillin-streptomycin and 1% of glutamine, Gibco BRL). The cells are distributed in a 24-well plate and cultured at 37° C. in a humid atmosphere under 5% CO2.\n(§2) 400 μl of cell suspension (1×10^6 cells/ml) per well were treated for 4 h or 24 h with various concentrations of peptides. The test for activity of the peptides in the presence of emetine (FIG. 6) was carried out by preincubating the cells with 100 μM of emetine for one hour before the addition of peptide.\n(§3) After the cells have been washed with PBS, they were analyzed using the Annexin V-FITC IP system according to the supplier's recommendations (Beckman Coulter).\nThe cells taken from patients suffering from chronic lymphoid leukemia were purified on a Ficoll cushion. […] The cells were placed in culture in RPMI medium in the presence of 10% FCS (fetal calf serum). The peptides were added directly to the culture medium. These peptides comprise the IRS sequence (the amino acid sequence of which is RYIRS) which is known to allow the penetration of peptides into B lymphocytes in culture (Dong et al., 2005). […] The cells which survive the treatment are those which are labeled neither with annexin nor with propidium iodide."}, "[2]": {"system": "Jok cells (cell line derived from B lymphocytes)", "assay": "Cell survival of Jok cells, annexin/propidium iodide flow cytometry", "format": "cell-based, human", "method": "The cells are treated as indicated for FIG. 7, with the CLL cells, control T lymphocytes and Jok lymphocytes, which are incubated with the A1 WT IRS peptide and derivatives thereof described in table 1. The Jok cells were incubated either with 20 μM (JOK 20) or with 40 μM (JOK 40) of each of the peptides. In the interests of simplifying the legend, the A1 WT IRS peptide is referred to as “WT”. Likewise, the derivatives thereof are referred to by the name of the mutations (A1 K3I IRS is referred to as “K3I”, for example).\nas §1, §2, §3\nThe peptides were tested on B lymphocytes from patients suffering from chronic lymphoid leukemia, control T lymphocytes, or Jok cells (cell line derived from B lymphocytes). The experiment was repeated three times for each type of cell tested."}, "[3]": {"system": "B-cell prolymphocytic leukemia cells", "format": "cell-based, human", "details": "24 h", "method": "(§4) FIG. 7: Activity of the A1WT peptide on cells of lymphocytic, lymphoid, gastric, colonic or renal origin The cells are prepared and placed in culture (see Materials and Methods) and then incubated for 4 H with the A1WT or A1 YALA peptide. The percentage cell survival corresponds to the percentage of cells labeled neither with annexin nor with propidium iodide, evaluated by flow cytometry. The names of the pathological conditions from which the patients from whom the samples are taken are suffering are indicated under the figure. The control T (L.T.) and B (L.B.) lymphocytes are taken from patients suffering from a disease not related to a lymphocytic pathological condition (hemochromatosis).\nas §1, §2, §3\n(§5) The cells of lymphoid origin all originated from samples taken from patients suffering from various pathological conditions classified according to the seat of the tumor proliferation. This proliferation takes place either in the bone marrow, for CLL, B-cell prolymphocytic leukemia and T-cell acute lymphoblastic leukemia (T-ALL); or in the lymph nodes for mantle cell lymphoma and marginal zone lymphoma. A classification can also be carried out according to the cell type affected: B lymphocytes (CLL, B-cell prolymphocytic leukemia, mantle cell lymphoma and marginal zone lymphoma) or T lymphocytes (T-ALL)."}, "[4]": {"system": "T lymphocytes from a patient suffering from T-cell acute lymphoblastic leukemia (T-ALL)", "format": "cell-based, human", "details": "FIG. 7, 4 H incubation", "method": "as §4, §1, §2, §3, §5"}, "[5]": {"system": "mantle cell lymphoma cells", "format": "cell-based, human", "details": "4 h, 40 μM", "method": "as §4, §1, §2, §3, §5"}, "[6]": {"system": "marginal zone lymphoma (MZL) cells", "format": "cell-based, human", "details": "4 h, 40 μM", "method": "as §4, §1, §2, §3, §5"}, "[7]": {"system": "HeLa cells (cervical cancer)", "assay": "Cell survival of HeLa cells, Syto 13/propidium iodide fluorescence microscopy", "format": "cell-based", "details": "one hour incubation, various concentrations; FIG. 10", "method": "The cells cultured in glass-bottomed multiwell plates are incubated for one hour with the A1WT or A1 YALA peptide at the concentrations indicated on the figure. The percentage cell survival is obtained by calculating the ratio between the cells stained with Syto 13 and those stained with propidium iodide (see Materials and Methods).\nThe analyses were carried out on a Zeiss Observer Z1 epifluorescence microscope. The cells are cultured in a glass-bottomed multiwell plate, propidium iodide and Syto13 (Invitrogen) are added to the medium at a concentration of 1 mg/ml and 5 μM, respectively. The Syto 13 binds to the DNA in the nuclei of the cells which then emit a green fluorescence. When the membrane permeability is modified during the cell death process, the propidium iodide penetrates the cell and causes the appearance of a red fluorescence when it binds to the DNA of the cell nuclei. The ratio between the number of nuclei emitting a green fluorescence and the number of nuclei emitting a red fluorescence represents the fraction of live cells expressed as percentage cell survival in the figures."}, "[8]": {"details": "40 μM peptide, 4 hours of culture, cells not labeled with annexin or propidium iodide"}},
  "note": "Where two headings read alike, the source gives them in different places. No end group written: not given here.",
  "data": [
    {"sequence": "RRKYGRDFLLRFRYIRS [A1 WT IRS, RRKYGRDFLLRFRYIRS]", "values": [
      {"measurement": "cell survival, peptide in the presence of emetine", "setting": "[1]; 40 μM peptide after 1 h preincubation with 100 μM emetine, 4 H (from 97%), FIG. 6", "value": 27, "unit": "%"},
      {"measurement": "cell effect CLL 40 (survival)", "setting": "[1]; [8]", "value": "+ (+: survival <25%)"},
      {"measurement": "change of the effect on survival over time", "setting": "[1]; 40 μM, 1 H, 2 H, 4 H and 24 H, FIG. 4", "value": "no longer active after 4 H of incubation"},
      {"measurement": "effect of the peptide on cell mortality, in words (relative to A1 WT IRS)", "setting": "[1]; 40 μM, 4 hours, FIG. 9", "value": "high cell mortality"},
      {"measurement": "cell survival rate compared with cells incubated without peptide", "setting": "[1]; 4 H of incubation with 20 μM of peptide, FIG. 8", "value": "less than 65%"},
      {"measurement": "IC50", "setting": "[1]; batch of cells from a second patient", "value": 24, "unit": "µM"},
      {"measurement": "IC50", "setting": "[1]; first patient, FIG. 5", "value": "~28", "unit": "µM"},
      {"measurement": "cell effect Jok 20 (survival)", "setting": "[2]; 20 μM peptide, 4 hours of culture, cells not labeled with annexin or propidium iodide", "value": "+ (+: survival <25%)"},
      {"measurement": "cell effect Jok 40 (survival)", "setting": "[2]; [8]", "value": "+ (+: survival <25%)"},
      {"measurement": "effect of the peptide on cell mortality, in words (relative to A1 WT IRS)", "setting": "[2]; 40 μM, 4 hours, FIG. 9", "value": "high cell mortality"},
      {"measurement": "cell survival", "setting": "[3]", "value": 20, "unit": "%"},
      {"measurement": "effect on cell survival", "setting": "[4]", "value": "as great as for the CLL cells"},
      {"measurement": "survival rate", "setting": "[5]", "value": "approximately 30%"},
      {"measurement": "survival rate", "setting": "[6]", "value": "approximately 30%"},
      {"measurement": "effect on cell survival", "setting": "[7]", "value": "high sensitivity"}
    ]}
  ]
}
